These are literature values, as cited in patent publication US20070128276A1 (PANACEA BIOTEC LTD., priority 1999, published 2007).

Data set [1] deals with renal prostaglandin synthesis. The conditions noted are these: rats.
The conditions of data set [2]: animal studies.
The test system of another data set is prostaglandin synthesis. The conditions noted are these: in vitro.
The next data set deals with yeast-induced fever. The conditions noted are these: rats with yeast-induced fever.

With `CS(=O)(=O)Nc1ccc([N+](=O)[O-])cc1Oc1ccccc1` [Nimesulide], the oral drug absorption entry is “nearly complete”. Further, in data set [1], the “effect on renal prostaglandin synthesis” value is “little effect”. For the setting “oral, concomitant administration of food”, the “effect of concomitant food on absorption” value was “may decrease the rate, but not the extent of absorption”. In addition, the “ulcerogenicity versus reference NSAIDs” value in data set [2] is “less ulcerogenic than aspirin, indomethacin, naproxen, piroxicam and ibuprofen”. Moreover, in the data set with prostaglandin synthesis, the “inhibition of prostaglandin synthesis” value is given as “relatively weak inhibitor”. Besides, in the data set with yeast-induced fever, the “antipyretic potency versus reference drugs” value was “superior antipyretic potency to indomethacin, ibuprofen, aspirin and paracetamol (acetaminophen)”. In the data set with plasma proteins, the “bound to plasma proteins” value is on record as 99%.
